Test results published in PubChem BioAssay AID1996.
≈ marks a conversion by molar mass, not a printed value.

Conditions: buffer; pH 7.4; 200.0 µM

| SMILES | solubility kinetic [µg/mL] |
| --- | --- |
| O=C(Nc1nccs1)c1ccc(N2C(=O)[C@@H]3[C@H](C2=O)[C@H]2C=C[C@@H]3C2)cc1 | 6.1 (≈ 16.7 µM) |
| O=C(Nc1ncccn1)c1ccc(Cl)c([N+](=O)[O-])c1 | > 41.8 |
| COC(=O)C1=C(C)OC(N)=C(C#N)C12C(=O)Nc1ccccc12 (stereo not given) | > 46.7 |
| Cc1cccc(C(=O)Nc2ccc(C(=O)c3ccccc3)cc2)c1 | < 0.7 |
| O=C(NCc1ccccc1)C1CCCN(c2cnccn2)C1 (stereo not given) | > 44.5 |
| Nc1ccccc1Nc1c(F)c(F)nc(F)c1Cl | 37.6 (≈ 137 µM) |
| COc1cc([N+](=O)[O-])ccc1NC(=O)Nc1cnccn1 | 0.8 (≈ 2.77 µM) |
| N#CCNC(=O)C1c2ccccc2Oc2ccccc21 | 4.1 (≈ 15.5 µM) |
| NC(=O)N1c2ccccc2C=Cc2ccccc21 | > 35.4 |
| CCCc1cc(=O)oc2c(CN3CCN(C)CC3)c(O)ccc12 | 45.2 (≈ 143 µM) |
| CC(Sc1nc(-c2ccco2)nc2c1c(=O)n(C)c(=O)n2C)C(=O)O (stereo not given) | > 54.4 |
| CC(=O)C1=C(C)NC(SCC(N)=O)=C(C#N)C1c1ccco1 (stereo not given) | > 47.6 |
| N#Cc1cccc(NC(=O)c2cncn2-c2ccccc2)c1 | 41.8 (≈ 145 µM) |
| COc1ccc(N(C)S(=O)(=O)c2cccc(C(=O)OCC(=O)c3c(N)n(C)c(=O)n(C)c3=O)c2)cc1 | 3.2 (≈ 6.2 µM) |
| Nc1ncnc(NC2CCS(=O)(=O)C2)c1[N+](=O)[O-] (stereo not given) | > 41 |
| O=C(O)/C=C/C(=O)Nc1c(F)cccc1F | 27.1 (≈ 119 µM) |
| O=C(NCC1CCCCC1)c1ccc(F)cc1Cl | 20.4 (≈ 75.6 µM) |
| CN(C)CCCOC(=O)c1sc2ccccc2c1Cl.Cl | > 50.1 |
| c1ccc(-c2cc3ccccc3[nH]2)cc1 | 0.7 (≈ 3.62 µM) |
| c1ccc2c(c1)nc(N1CCOCC1)c1ccccc12 | 14.9 (≈ 56.4 µM) |
| O=C(O)C(=O)O.c1ccc(OCCN2CCOCC2)cc1 | > 44.6 |
| CCC(CC)C(=O)N1CC(=O)Nc2ccc(C)cc2C1c1ccccc1 (stereo not given) | 2.4 (≈ 6.85 µM) |
| COc1ccccc1-c1c(NC(=O)C(C)C)n(C)c2ccccc2c1=O | > 52.6 |
| COCCCNC(=S)N1CCN(C)CC1 | > 34.7 |

| SMILES | solubility kinetic [µg/mL] |
| --- | --- |
| Cc1ccccc1Nc1ncnc(N)n1 | > 30.2 |
| O=C(NCCc1ccncc1)Nc1ccc(Cl)c(Cl)c1 | > 46.5 |
| COc1ccc(C(=O)NCCNC(=O)c2cnccn2)cc1OC | > 49.6 |
| Cc1cc(C)cc(NC(=O)NC2CCCCCCC2)c1 | 1 (≈ 3.64 µM) |
| CSc1ccc(Cl)c(C(=O)Nc2ccc(C)cn2)c1 | 4.8 (≈ 16.4 µM) |
| Fc1ccc(OCc2cc(-c3ccccc3)no2)cc1 | < 0.6 |
| CCN(CC(=O)NCc1cccs1)CC(=O)Nc1ccc(C(N)=O)cc1 | > 56.2 |
| Cc1ccc(NC(=O)CCC2CC(C)(C)OC2=O)cc1 (stereo not given) | > 41.3 |
| O=C(O)CCSc1nc2ccccc2n1-c1ccccc1 | > 44.8 |
| CC(=O)Nc1ccc2c(c1)nc(C)n2-c1ccccc1 | > 39.8 |
| CC1CCCC(NC(=O)COC(=O)c2cccs2)C1C (stereo not given) | 43.1 (≈ 146 µM) |
| CCOC(=O)C1=C(O)CSC1=Nc1ccc(C)cc1 | > 41.6 |
| COC(=O)CSc1ncnc2c1sc1nc3c(cc12)COC(C)(C)C3 | 1.6 (≈ 4.26 µM) |
| CN(Cc1ccccc1)C(=O)COc1ccc(Br)cc1Cl | 12.6 (≈ 34.2 µM) |
| O=C(O)CNC(=O)/C=C/c1c(Cl)cccc1Cl | > 41.1 |
| CC(C)c1ccc(NC(=O)N2C[C@H]3C[C@@H](C2)c2cccc(=O)n2C3)cc1 | > 52.7 |
| CNC(=O)c1c(O)c2cccc3c2n(c1=O)CCC3 | 2.6 (≈ 10.1 µM) |
| Cc1cc(NC(=O)Cc2ccsc2)ccc1Br | 4.5 (≈ 14.5 µM) |
| CCc1sc(C(=O)N2CCN(c3ccc(F)cc3)CC2)cc1C | 10.7 (≈ 32.2 µM) |
| COc1ccc(CCNCc2cccn2C)cc1OC.Cl | > 46.6 |
| Cc1nccn1CC(=O)N/N=C/c1cc(Br)cs1 | > 49.1 |
| COc1cc(NC(=O)NC2Cc3ccccc3C2)cc(OC)c1 | < 0.3 |
| Fc1ccccc1OCCCCN1CCCCC1 | 27.7 (≈ 110 µM) |
| COc1ccc(OC)c2sc(N(CCN(C)C)C(=O)c3ccc4ccccc4c3)nc12.Cl | 8.6 |

| SMILES | solubility kinetic [µg/mL] |
| --- | --- |
| Cc1ccc(-c2nsc(SCC(=O)NCC3CCCO3)n2)cc1 (stereo not given) | > 52.4 |
| O=C(COC(=O)c1cccnc1Cl)Nc1cccc(S(=O)(=O)N2CCOCC2)c1 | > 66 |
| CN(C)CCN=Cc1c(O)n(Cc2ccc3c(c2)OCO3)c(=S)[nH]c1=O | 55.8 (≈ 148 µM) |
| N/C(CS(=O)(=O)c1ccc(F)cc1)=N\O | > 34.8 |
| N#Cc1cc(S(=O)(=O)N2CCOCC2)ccc1N1CCOCC1 | > 50.6 |
| COc1ccc(NC(=S)NC(=NS(=O)(=O)c2ccc(Cl)cc2)c2ccccc2)cc1 | 47.3 (≈ 103 µM) |
| CCOc1ccc(CN2CCSCC2)cc1 | 18.5 (≈ 77.9 µM) |
| COc1ccc(-c2cc(=O)[nH]c3ccccc23)cc1 | 4.6 (≈ 18.3 µM) |
| CCCCC12CN3CC(C)(CN(C1)C3c1ccc([N+](=O)[O-])o1)C2=O (stereo not given) | > 50 |
| Cc1nc2ccc([N+](=O)[O-])cc2c(=O)n1Cc1ccc(Cl)cc1 | 0.6 (≈ 1.82 µM) |
| O=C(COC(=O)c1cc(Cl)ccc1O)Nc1ccccc1C(=O)NC1CC1 | 2 (≈ 5.14 µM) |
| O=C(NC1CCCC1)c1cc(-c2ccc(Cl)cc2Cl)on1 | 1 (≈ 3.08 µM) |
| CCCCc1c(C)nc2ccccc2c1SCCC(=O)O | > 45.5 |
| O=C(Cc1c(F)cccc1Cl)NC1CCN(Cc2ccccc2)CC1 | 50.5 (≈ 140 µM) |
| O=C(NCCc1cccc(Cl)c1)c1cc2ccccc2oc1=O | < 0.7 |
| CN(CC(=O)N1CCCC1)S(=O)(=O)c1cccc(Cl)c1 | > 47.5 |
| Cc1cccc(N2CCN(C(=S)NC3CCCCC3)CC2)c1C | < 0.2 |
| CCOC(=O)N1CCN(c2cc(=O)n(C)c(=O)n2C)CC1 | > 44.4 |
| CCSc1nc2sc3c(c2c(=O)n1CC)CCC3 | 2.2 (≈ 7.85 µM) |
| COc1ccccc1C(=O)NC(=O)COC(=O)C1CCC1 | > 43.7 |
| Cc1cc2c(SCC(=O)NC3CCCCC3)ncnc2s1 | 4.4 (≈ 13.7 µM) |
| CC(C)c1ccccc1NC(=O)Nc1ccc(F)cc1F | 2.7 (≈ 9.3 µM) |
| COc1ccc(Cl)cc1NS(=O)(=O)N1CCOCC1 | > 46 |
| Cc1onc(-c2ccccc2)c1C(=O)Nc1sccc1C#N | 23.5 (≈ 76 µM) |

| SMILES | solubility kinetic [µg/mL] |
| --- | --- |
| COc1cccc(NC(=O)c2ccc3c(c2)CCN3S(C)(=O)=O)c1 | > 52 |
| O=[N+]([O-])c1ccccc1S(=O)(=O)NCCc1ccncc1 | 43.8 (≈ 143 µM) |
| Cc1cc(C)cc(NC(=O)C2CC3CCC2C3)c1 (stereo not given) | 6.8 (≈ 27.9 µM) |
| O=C(Nc1ccc(C(F)(F)F)cc1)OC1CN2CCC1CC2 (stereo not given) | 45.1 (≈ 143 µM) |
| O=C(Nc1ccc(Cl)cc1)c1ccc(-c2ccccn2)s1 | < 0.3 |
| COCCn1c(SCC(=O)c2ccccc2)nc2c(c1=O)SCC2 | 42.5 (≈ 117 µM) |
| N#C/C(=C\c1ccccc1)c1ccccn1 | 8.6 (≈ 41.7 µM) |
| CN1CCN(C(=S)NC(=O)c2cccc([N+](=O)[O-])c2)CC1 | > 46.3 |
| CC(C)C1(CCNC(=O)c2cccs2)CCOC(C)(C)C1 (stereo not given) | 42 (≈ 136 µM) |
| Cc1cccc(N2CCN(C(=O)CCc3nc4ccccc4c(=O)[nH]3)CC2)c1C | 2 (≈ 5.12 µM) |
| COc1ccc(CNC(=O)c2[nH]c(C)c(C(C)=O)c2C)cc1 | > 45.1 |
| CN1CCc2c(OCC(=O)N3CCCc4ccccc43)cccc2C1=O | > 52.6 |
| COc1ccc(C(=O)OCC(=O)Nc2sccc2C(N)=O)cc1OC | 1 (≈ 2.74 µM) |
| O=C(Nc1ccc2c(c1)OCCO2)c1cccc(Cl)c1Cl | 35.5 (≈ 110 µM) |
| Cc1nc(NC(=O)CSc2nncs2)c(Cl)cc1Cl | > 50.3 |
| CC1CCN(c2nc3c(cc2C#N)COC(C)(C)C3)CC1 | 16 (≈ 56.1 µM) |
| COc1ccc(NC2SC(=O)N(C)C2=O)cc1 (stereo not given) | 37.6 (≈ 149 µM) |
| C=CCNc1nc(N)c([N+](=O)[O-])c(NCc2ccccc2)n1 | 0.7 (≈ 2.33 µM) |
| CNc1nc2c(C)cccn2c(=O)c1C=Nc1ccc(OC)cc1 | 0.9 (≈ 2.79 µM) |
| COc1ccc(NC(=S)NCc2ccc(F)cc2)cc1 | > 43.6 |
| CC(C(=O)OCC(=O)NC1CCCCC1)N1C(=O)c2ccccc2C1=O (stereo not given) | > 53.8 |
| CCOC(=O)c1nc(-c2ccccc2)sc1C(C)=O | 35.9 (≈ 130 µM) |
| O=C(CC1CCCCC1)NCc1ccc(F)cc1 | 20.7 (≈ 83 µM) |
| CCOc1ccc(S(=O)(=O)NC2CCCC2)cc1C | > 42.5 |

| SMILES | solubility kinetic [µg/mL] |
| --- | --- |
| NS(=O)(=O)c1ccc(CCNC(=O)c2ccc(-c3ccccc3)cc2)cc1 | < 0.4 |
| O=[N+]([O-])c1ccc(N2CCOCC2)c2cccnc12 | > 38.9 |
| CC1=CC(C)(C)N(C(=O)Nc2ccccc2)c2ccccc21 | 7.8 (≈ 26.7 µM) |
| CCC(C)c1ccc(C(C)NC(=S)NCc2ccc(F)cc2)cc1 (stereo not given) | < 0.4 |
| COc1ccc(CCC(C)N(C)Cc2ccccc2)cc1 (stereo not given) | 34.9 (≈ 123 µM) |
| Cc1ccc(N(C)S(=O)(=O)c2csc(C(N)=O)c2)cc1C | 43.8 (≈ 135 µM) |
| Brc1cnc2nc[nH]c2c1 | > 29.7 |
| Nc1ccc2nc(COc3ccccc3)[nH]c2c1 | 12.4 (≈ 51.8 µM) |
| O=C(COC(=O)Cc1ccc(Cl)cc1)NCc1cccs1 | 35.1 (≈ 108 µM) |
| COC(=O)Cc1c(C)nc(SCc2ccccc2)[nH]c1=O | 16.4 (≈ 53.9 µM) |
| CC(=O)N1CC(=O)Nc2ccc(Cl)cc2C1c1ccccc1 (stereo not given) | > 47.2 |
| COc1cccc2cc(-c3nc4ccccc4o3)c(=O)oc12 | 1.7 (≈ 5.8 µM) |
| Cc1ccc(NC(=O)N[C@@H](CC(C)C)C(=O)O)c(C)c1 | > 41.8 |
| CCOC(=O)c1ccc2nc(C)c(C)nc2c1 | 31.3 (≈ 136 µM) |
| O=C(CNC(=O)c1ccco1)N/N=C/c1ccc(C(=O)O)cc1 | > 47.3 |
| Cc1ccc(C(=O)NCC(=O)OC(C)C(=O)Nc2ccccc2[N+](=O)[O-])s1 (stereo not given) | > 58.7 |
| O=C(CN1C(=O)NC2(CCCCC2)C1=O)Nc1ccc(F)cc1 | > 47.9 |
| O=C(CN1C(=O)NC2(CCCC2)C1=O)OCc1ccccc1 | 21.8 (≈ 72.1 µM) |
| COc1ccc(S(=O)(=O)N2CCCCC2)cc1NS(=O)(=O)c1ccc(CNC(C)=O)cc1 | 62.5 (≈ 130 µM) |
| CCCN(CCC)CC(O)Cn1c2ccccc2c2ccccc21 (stereo not given) | 12.5 (≈ 38.5 µM) |
| O=C(O)c1cc(-c2ccccc2)nc(-c2ccccc2)c1 | > 41.3 |
| O=C(NCCc1ccc(Cl)cc1)C(=O)c1c[nH]c2ccccc12 | 2.1 (≈ 6.43 µM) |
| COc1ccc(NS(=O)(=O)c2cccc(C(=O)O)c2)cc1S(=O)(=O)N1CCCCC1 | > 68.2 |
| CCCCn1c(SCC(=O)N(C)C)nnc1-c1ccncc1 | > 47.9 |
